Type in all cases: cell-based
Assay [1] concerns PC3 human prostate cancer cells. In words: MTT cytotoxicity assay, PC3. Particulars: Table 5, fluoro-substituted, value ± spread. As to the method: (§1) The cytotoxicity assay of various compounds against human tumor cell lines was performed using the MTT (3-[4,5-dimethylthiazol-2-yl]-2,5-diphenyl tetrazolium bromide) assay (Boehringer Mannheim Corp., Indianapolis, Ind.). Briefly, exponentially growing tumor cells were seeded into a 96-well plate at a density of 2.5×10^4 cells/well and incubated for 36 hours at 37° C. prior to drug exposure. On the day of treatment, culture medium was carefully aspirated from the wells and replaced with fresh medium containing the quinazoline compounds at concentrations ranging from 0.1 to 250 μM. Triplicate wells were used for each treatment.
(§2) Human cell lines were obtained from American Type Culture Collection (Rockville, Md.) and maintained as a continuous cell line in Dulbecco's modified Eagles' medium supplemented with 10% fetal bovine serum and antibiotics. Cells used in this study include human leukemia cells (NALM-6 and MOLT-3), human breast cancer cells ([…]), human prostate cancer cells (PC3), and human brain tumor cells (U373).
(§3) The cells were incubated with the various compounds for 24–36 hours at 37° C. in a humidified 5% CO2 atmosphere. To each well, 10 μl of MTT (0.5 mg/ml final concentration) was added and the plates were incubated at 37° C. for 4 hours to allow MTT to form formazan crystals by reacting with metabolically active cells. The formazan crystals were solubilized overnight at 37° C. in a solution containing 10% SDS in 0.01 M HCl. The absorbance of each well was measured in a microplate reader (Labsystems) at 540 nm and a reference wavelength of 690 nm. To translate the OD 540 values into the number of live cells in each well, the OD 540 values were compared to those on standard OD 540—versus—cell number curves generated for each cell line. The percent survival was calculated using the formula:
(§4) [formula] The IC50 values were calculated by non-linear regression analysis. Detection of Apoptosis

The subject of assay [2] is MOLT-3 human leukemia cells. The assay is described as follows: MTT cytotoxicity assay, MOLT-3. As for the experimental part: as §1, §2, §3, §4
Assay [3] deals with BT20 human breast cancer cells. In words: MTT cytotoxicity assay, BT20. Particulars: Homo sapiens. As to the method: as §1, §2, §3, §4
In assay [4] the test system is U373 human brain tumor cells. The assay is described as follows: MTT cytotoxicity assay, U373. Particulars: Homo sapiens, U373 MG. As for the experimental part:
as §1, §2, §3, §4

Assay [5] deals with NALM-6 human leukemia cells. In words: MTT cytotoxicity assay, NALM-6. As to the method:
as §1, §2, §3, §4

[6] abbreviates: Homo sapiens, MOLT-3, Table 5, fluoro-substituted, value ± spread.
Setting [7] is: BT-20, Table 5, fluoro-substituted, value ± spread.
[8] abbreviates: Table 5, fluoro-substituted, value ± spread.
Where [9] appears, read: Homo sapiens, NALM-6, Table 5, fluoro-substituted, value ± spread.
Where [10] appears, read: Homo sapiens, MOLT-3, Table 1, bromo substituted, 24–36 hours.
Setting [11] is: BT-20, Table 1, bromo substituted, 24–36 hours.
Setting [12] is: Homo sapiens, NALM-6, Table 1, bromo substituted, 24–36 hours.
Where [13] appears, read: Homo sapiens, MOLT-3, Table 3, iodide substituted, 24–36 hours.
Where [14] appears, read: BT-20, Table 3, iodide substituted, 24–36 hours.
Where [15] appears, read: Table 3, iodide substituted, 24–36 hours.
Where [16] appears, read: Homo sapiens, NALM-6, Table 3, iodide substituted, 24–36 hours.
The mark [17] stands for this setting: Table 4, OH substituted, 24–36 hours.

The values that follow come from patent US7038049B2, “Haloanilino quinazolines and therapeutic use thereof” (Parker Hughes Institute, priority 1999, dated 2006).

On to `COc1cc2ncnc(Nc3ccc(C(F)(F)F)cc3)c2cc1OC` [HI-P223, 4-(4′-Trifluoromethylphenyl)-amino-6,7-dimethoxyquinazoline], for which the IC50 was above 250 µM in assay [1]; 40.8 ± 15.1 µM in assay [2] (setting [6]); 27.6 ± 8.6 µM in assay [3] (setting [7]); 32.1 ± 3.9 µM in assay [4] (setting [8]); 39.5 ± 8 µM in assay [5] (setting [9]).
For `COc1cc2ncnc(Nc3ccc(S(=O)(=O)F)cc3)c2cc1OC` [HI-P232, 4-[4′-benzenesulfanilylfluoride]-amino-6,7-dimethoxyquinazoline], the half-maximal inhibitory concentration (IC50) in assay [1] was found to be 88.9 ± 17.2 µM; in assay [2] (setting [6]), 43.6 ± 2.3 µM; in assay [3] (setting [7]) it was 70.5 ± 8.2 µM; in assay [4] (setting [8]), 208 ± 18.1 µM; in assay [5] (setting [9]) it was 41.4 ± 6.9 µM.
Consider `COc1cc2ncnc(Nc3ccc(C(c4cccc(N)c4)(C(F)(F)F)C(F)(F)F)cc3)c2cc1OC` [HI-P353], for which the IC50 in assay [1] worked out at 64.9 ± 11.9 µM; in assay [2] (setting [6]), 17.4 ± 1.5 µM; in assay [3] (setting [7]), 14.1 ± 3.3 µM; in assay [4] (setting [8]) it was 14.5 ± 7.6 µM; in assay [5] (setting [9]), 6.1 ± 1.4 µM.
The matching figures for `COc1cc2ncnc(Nc3cccc(OC(F)(F)F)c3)c2cc1OC` [HI-P364, 4-(3′-Trifluoromethoxylphenyl)-amino-6,7-dimethoxyquinazoline]: above 250 µM, 25.3 ± 9.1 µM, 40.1 ± 8.6 µM, 27.7 ± 1.2 µM and 7.9 ± 1.9 µM.
`COc1cc2ncnc(Nc3ccccc3OC(F)(F)F)c2cc1OC` [HI-P365, 4-(2′-Trifluoromethoxylphenyl)-amino-6,7-dimethoxyquinazoline]: the IC50 was above 250 µM in assay [1]; 111 ± 7.5 µM in assay [2] (setting [6]); above 250 µM in assay [3] (setting [7]); above 250 µM in assay [4] (setting [8]); 86.5 ± 3.4 µM in assay [5] (setting [9]).
As to `COc1cc2ncnc(Nc3ccccc3F)c2cc1OC` [HI-P264, 4-(2′-Fluorophenyl)-amino-6,7-dimethoxyquinazoline], the IC50 in assay [1] is above 250 µM; in assay [2] (setting [6]), 70.9 ± 17.3 µM; in assay [3] (setting [7]), 33.3 ± 7.5 µM; in assay [4] (setting [8]) it was 53.3 ± 6.7 µM; in assay [5] (setting [9]), 47 ± 19.5 µM.
Regarding `COc1cc2ncnc(Nc3c(F)c(F)c(Br)c(F)c3F)c2cc1OC` [HI-P144, 4-(2′,3′,5′,6′-tetrafluoro-4′-bromophenyl)amino-6,7-dimethoxyquinazoline], the IC50 is above 250 µM in assay [1]; 24.9 ± 3.7 µM in assay [2] (setting [6]); 63.4 ± 5.5 µM in assay [3] (setting [7]); 49.5 ± 11.3 µM in assay [4] (setting [8]); 28.1 ± 2.6 µM in assay [5] (setting [9]).
For `COc1cc2ncnc(Nc3ccccc3C(F)(F)F)c2cc1OC` [HI-P228, 4-(2′-Trifluoromethylphenyl)-amino-6,7-dimethoxyquinazoline], the IC50 in assay [1] is above 250 µM; in assay [2] (setting [6]) it was 237 ± 4.8 µM; in assay [3] (setting [7]), above 250 µM; in assay [4] (setting [8]), above 250 µM; in assay [5] (setting [9]) it was 57.3 ± 24.8 µM.
As for `COc1cc2ncnc(Nc3ccc(Br)cc3F)c2cc1OC` [HI-P214, 4-(2′-Fluoro-4′-bromophenyl)-amino-6,7-dimethoxyquinazoline], the concentration for half-maximal inhibition (IC50) in assay [1], in assay [2] (setting [10]), in assay [2] (setting [6]), in assay [3] (setting [11]), in assay [3] (setting [7]) and in assay [4] (setting [8]) was above 250 µM in each case. Moreover, the IC50 in assay [5] (setting [12]) and in assay [5] (setting [9]) was above 250 µM throughout.
Turning to `COc1cc2ncnc(Nc3ccc(C(c4ccc(N)cc4)(C(F)(F)F)C(F)(F)F)cc3)c2cc1OC` [HI-P352, 4-{4′-[2″-(4′′′-Aminophenyl)-hexafluoropropyl]phenyl}amino-6,7-dimethoxyquinazoline], the IC50 was 72.6 ± 2.5 µM in assay [1]; 21.8 ± 1.7 µM in assay [2] (setting [6]); 50.3 ± 14.8 µM in assay [3] (setting [7]); 65.5 ± 11.2 µM in assay [4] (setting [8]); 7.1 ± 1.8 µM in assay [5] (setting [9]).
As for `COc1cc2ncnc(Nc3cccc(F)c3)c2cc1OC` [HI-P224, 4-(3′-fluorophenyl)amino-6,7-dimethoxyquinazoline], the IC50 in assay [1] is above 250 µM; in assay [2] (setting [6]), 23.3 ± 7.7 µM; in assay [3] (setting [7]), 58.3 ± 5.8 µM; in assay [4] (setting [8]), 22.4 ± 5.9 µM; in assay [5] (setting [9]) it was 20.2 ± 8.1 µM.
`COc1cc2ncnc(Nc3cccc(I)c3)c2cc1OC` [HI-P271, 4-(3′-Iodophenyl)-amino-6,7-dimethoxyquinazoline]: the IC50 in assay [2] (setting [13]) is 9.6 µM; in assay [3] (setting [14]), above 250 µM; in assay [4] (setting [15]), above 250 µM; in assay [5] (setting [16]), 6.1 µM.
Take `COc1cc2ncnc(Nc3ccc(F)cc3)c2cc1OC` [HI-P221, 4-(4′-Fluorophenyl)-amino-6,7-dimethoxyquinazoline]: the IC50 in assay [1] was above 250 µM; in assay [2] (setting [6]), 98.7 ± 3.8 µM; in assay [3] (setting [7]), 30.7 ± 7.9 µM; in assay [4] (setting [8]) it was 28.8 ± 12.7 µM; in assay [5] (setting [9]) it was 100 ± 4.8 µM.
For `COc1cc2ncnc(Nc3cc(F)c(O)c(F)c3)c2cc1OC` [HI-P408, 4-(4′-Hydroxyl-3′,5′-difluorophenyl)-amino6,7-dimethoxy-quinazoline], the IC50 in assay [1] was above 250 µM; in assay [2] (setting [6]), 228 ± 20.8 µM; in assay [3] (setting [7]) it was above 250 µM; in assay [4] (setting [8]) it was above 250 µM; in assay [5] (setting [9]), 116 ± 17.8 µM.
For `COc1cc2ncnc(Nc3cc(Br)c(O)c(Br)c3)c2cc1OC` [HI-P97, 4-(3′,5′-Dibromo-4′-hydroxylphenyl)-amino-6,7-dimethoxyquinazoline], the IC50 is above 250 µM in assay [2] (setting [10]); above 250 µM in assay [2] (setting [17]); 26.1 µM in assay [3] (setting [11]); 161 µM in assay [4] (setting [17]); above 250 µM in assay [5] (setting [12]); above 250 µM in assay [5] (setting [17]).
As to `COc1cc2ncnc(Nc3ccc(O)c(F)c3)c2cc1OC` [HI-P369, 4-(4′-Hydroxyl-3′-fluorophenyl)-amino-6,7-dimethoxyquinazoline], the IC50 in assay [1], in assay [2] (setting [6]), in assay [3] (setting [7]), in assay [4] (setting [8]) and in assay [5] (setting [9]) was above 250 µM in each case.
Turning to `COc1cc2ncnc(Nc3ccc(O)cc3O)c2cc1OC` [HI-P192, 4-(2′,4′-Dihydroxyphenyl)-amino-6,7-dimethoxyquinazoline], the IC50 in assay [2] (Homo sapiens, MOLT-3, Table 4, OH substituted, 24–36 hours) was above 250 µM; in assay [3] (BT-20, Table 4, OH substituted, 24–36 hours), above 250 µM; in assay [4] (setting [17]), above 250 µM; in assay [5] (Homo sapiens, NALM-6, Table 4, OH substituted, 24–36 hours), above 250 µM.
Regarding `COc1cc2ncnc(Nc3cc(C(F)(F)F)cc(C(F)(F)F)c3)c2cc1OC` [HI-P366, 4-(3′,5′-Ditrifluoromethylphenyl)-amno-6,7-dimethoxyquinazoline], the IC50 in assay [1] is above 250 µM; in assay [2] (setting [6]) it was 137 ± 10.3 µM; in assay [3] (setting [7]), 61.7 ± 12.1 µM; in assay [4] (setting [8]), 55.5 ± 13.2 µM; in assay [5] (setting [9]), 52.8 ± 14 µM.
The corresponding values for `COc1cc2ncnc(Nc3cccc(C(F)(F)F)c3)c2cc1OC` [HI-P218, 4-(3′-Trifluoromethylphenyl)-amino-6,7-dimethoxyquinazo-line] are 126 ± 5.8 µM, 33.2 ± 3.3 µM, 37.6 ± 5.2 µM, 29.9 ± 7.3 µM and 37 ± 5.8 µM.
For the compound `COc1cc2ncnc(Nc3ccccc3I)c2cc1OC` [HI-P270, 4-(2′-Iodophenyl)-amino-6,7-dimethoxyquinazoline], the IC50 in assay [2] (setting [13]) is 78.9 µM; in assay [3] (setting [14]), above 250 µM; in assay [4] (setting [15]), above 250 µM; in assay [5] (setting [16]) it was above 250 µM.
